Source: ChEMBL document CHEMBL1140849, “Selective small molecule inhibitors of the potential breast cancer marker, human arylamine N-acetyltransferase 1, and its murine homologue, mouse arylamine N-acetyltransferase 2” (Bioorg Med Chem, 2009)
Values belong to the compound of their own block, whether it stands above or below them. Calls of active or inactive are those of the source. No cut-off for these calls is given here.

Tests used:
[1] = Cytotoxicity against mouse macrophage at 10 ug/ml after 72 hrs by trypan blue exclusion method; assay type: cell-based
[2] = target: T1, Arylamine N-acetyltransferase 2 (Mus musculus, UniProt P50295); assay: Inhibition of mouse recombinant NAT2 assessed as hydrolysis of acetyl coA using PABA as substrate by Ellman's method
T1 sequence (P50295 whole entry): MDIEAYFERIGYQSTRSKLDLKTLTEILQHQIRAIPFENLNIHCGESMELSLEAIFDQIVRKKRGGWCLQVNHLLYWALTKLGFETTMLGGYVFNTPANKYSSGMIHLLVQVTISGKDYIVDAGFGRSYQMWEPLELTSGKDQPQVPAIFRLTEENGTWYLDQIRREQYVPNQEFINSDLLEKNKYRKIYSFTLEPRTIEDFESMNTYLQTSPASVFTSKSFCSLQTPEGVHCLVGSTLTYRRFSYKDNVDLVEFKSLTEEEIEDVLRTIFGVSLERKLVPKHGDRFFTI

[3] = target: T2, Arylamine N-acetyltransferase (Pseudomonas aeruginosa (strain ATCC 15692 / PAO1 / 1C / PRS 101 / LMG12228), UniProt Q9HUY3); conditions: read-out: INH
T2 sequence (Q9HUY3 whole entry): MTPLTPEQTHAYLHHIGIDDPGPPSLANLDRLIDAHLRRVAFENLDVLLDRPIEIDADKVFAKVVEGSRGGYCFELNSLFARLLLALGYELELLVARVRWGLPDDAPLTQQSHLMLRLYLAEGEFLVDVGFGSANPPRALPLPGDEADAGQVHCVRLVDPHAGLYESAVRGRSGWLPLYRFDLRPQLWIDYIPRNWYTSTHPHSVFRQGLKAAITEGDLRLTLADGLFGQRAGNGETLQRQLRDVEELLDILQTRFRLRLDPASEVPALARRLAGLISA
Description: Inhibition of Pseudomonas aeruginosa recombinant NAT using isoniazid as substrate at 30 uM

Mycobacterium marinum [4] = assay: Inhibition of Mycobacterium marinum recombinant NAT using isoniazid as substrate at 30 uM
[5] = target: T3, Arylamine N-acetyltransferase 1 (Homo sapiens, UniProt P18440); assay: Inhibition of human recombinant NAT1 assessed as hydrolysis of acetyl coA using PABA as substrate by Ellman's method
T3 sequence (P18440 whole entry): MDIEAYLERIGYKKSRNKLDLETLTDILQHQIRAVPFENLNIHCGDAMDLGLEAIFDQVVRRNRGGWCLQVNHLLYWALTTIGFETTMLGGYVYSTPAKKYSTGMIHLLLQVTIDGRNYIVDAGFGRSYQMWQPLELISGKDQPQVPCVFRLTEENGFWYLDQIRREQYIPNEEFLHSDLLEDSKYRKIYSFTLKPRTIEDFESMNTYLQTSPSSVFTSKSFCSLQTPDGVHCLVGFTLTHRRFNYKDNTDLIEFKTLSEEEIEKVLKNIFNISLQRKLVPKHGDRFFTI

[6] = target: T4, Arylamine N-acetyltransferase 2 (NAT2) (Homo sapiens, UniProt P11245); assay: Inhibition of human recombinant NAT2 using 5-aminosalicylic acid as substrate at 30 uM; conditions: recombinant NAT2, probe 5-aminosalicylic acid
T4 sequence (P11245 whole entry): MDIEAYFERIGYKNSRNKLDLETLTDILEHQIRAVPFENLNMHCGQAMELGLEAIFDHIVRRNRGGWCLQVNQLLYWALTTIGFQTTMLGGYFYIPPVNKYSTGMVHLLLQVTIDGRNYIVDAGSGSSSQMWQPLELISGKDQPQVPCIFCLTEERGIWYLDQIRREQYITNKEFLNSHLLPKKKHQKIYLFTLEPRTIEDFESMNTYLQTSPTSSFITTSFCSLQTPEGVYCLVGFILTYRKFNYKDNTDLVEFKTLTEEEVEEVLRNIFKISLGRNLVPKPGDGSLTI

ZR75 = assay: Inhibition of NAT in human ZR75 cell lysate assessed as acetylation of aryl amine using PABA as substrate at 30 uM; assay type: cell-free
[7] = target: T5, Arylamine N-acetyltransferase 2 (NAT2) (Mus musculus, UniProt P50295); assay: Inhibition of mouse recombinant NAT2 using 5-aminosalicylic acid as substrate at 30 uM; conditions: recombinant NAT2, probe 5-aminosalicylic acid
T5 sequence (P50295 whole entry): T1 sequence (P50295 whole entry)

[8] = target: T2, Arylamine N-acetyltransferase; assay: Inhibition of Pseudomonas aeruginosa recombinant NAT using 5-aminosalicylic acid as substrate at 30 uM; conditions: read-out: INH
Mycobacterium marinum [9] = conditions: 30 uM
Description: Inhibition of Mycobacterium marinum recombinant NAT using 5-aminosalicylic acid as substrate at 30 uM

[10] = target: T1, Arylamine N-acetyltransferase 2; assay: Inhibition of mouse recombinant NAT2 using PABA as substrate at 30 uM

Compound: O=C1NC(=S)S/C1=C\c1ccc(Br)cc1
- IC50 [2]: > 30 µM

Compound: O=C1NC(=S)S/C1=C\c1ccc(-c2ccccc2)cc1
- inhibition at 30 µM [3]: < 40%
- inhibition (Mycobacterium marinum [4]): < 40%

Compound: Cc1ccc(/C=C2\SC(=S)N(C)C2=O)cc1
- IC50 [2]: > 30 µM

Compound: Cc1ccc(/C=C2\SC(=S)NC2=O)cc1
- IC50 [5]: > 30 µM
- inhibition at 30 µM [3]: < 40%

Compound: O=C1NC(=S)S/C1=C\c1ccc(Cl)c(Cl)c1
- inhibition at 30 µM [3]: < 40%
- inhibition (Mycobacterium marinum [4]): < 40%

Compound: O=C1NC(=O)/C(=C/c2ccc3ccccc3c2)S1
- IC50 [2]: > 30 µM

Compound: CCC/C=C1\SC(=S)NC1=O
- IC50 [2]: 7.7 µM

Compound: O=C1NC(=S)S/C1=C\c1cccc2ccccc12
- IC50 [2]: > 30 µM

Compound: C/C(=C1/SC(=S)NC1=O)c1ccccc1
- IC50 [2]: 25 µM

Compound: CCCCCCCCC/C=C1\SC(=S)NC1=O
- IC50 [2]: 10.2 µM

Compound: C/C(=C1/SC(=S)N(C)C1=O)c1ccccc1
- IC50 [2]: > 30 µM

Compound: O=C1NC(=S)S/C1=C\c1cccc(F)c1
- IC50 [2]: 6.7 µM

Compound: O=C1NC(=S)S/C1=C\c1ccc2ccccc2c1
- IC50 [2]: 26.9 µM

Compound: O=C1NC(=S)S/C1=C\c1ccc(F)cc1
- IC50 [5]: 12.9 µM
- inhibition at 30 µM [3]: < 40%
- inhibition (Mycobacterium marinum [4]): < 40%

Compound: O=C1NC(=S)S/C1=C\c1ccc(O)cc1
- IC50 [5]: 16.9 µM
- inhibition at 30 µM [3]: < 40%
- inhibition (Mycobacterium marinum [4]): < 40%

Compound: Cc1cccc(/C=C2\SC(=S)NC2=O)c1
- inhibition at 30 µM [3]: < 40%
- inhibition (Mycobacterium marinum [4]): < 40%

Compound: O=C1NC(=S)S/C1=C\c1cc(I)c(O)c(I)c1
- Activity [1]: > 80%
- inhibition at 30 µM [6]: 46%
- Activity (ZR75): Active
- inhibition at 30 µM [7]: 104%
- inhibition at 30 µM [3]: < 40%
- inhibition at 30 µM [8]: 52%
- inhibition (Mycobacterium marinum [9]): 40%
- Activity [10]: Active
- inhibition (Mycobacterium marinum [4]): < 40%

Compound: CN1C(=O)/C(=C/c2ccccc2)SC1=S
- IC50 [2]: > 30 µM

Compound: O=C1NC(=S)S/C1=C\c1ccccc1-c1ccccc1
- IC50 [2]: 16.5 µM

Compound: CCCCCCC/C=C1\SC(=S)NC1=O
- IC50 [2]: 6.8 µM

Compound: CN1C(=O)/C(=C/c2cccc3ccccc23)SC1=S
- IC50 [2]: > 30 µM

Compound: NN1C(=O)/C(=C/c2cc(I)c(O)c(I)c2)SC1=S
- Activity [1]: < 80%

Compound: O=C1NC(=S)S/C1=C\c1cccc(O)c1
- Activity [1]: < 80%
- inhibition at 30 µM [3]: < 40%
- inhibition (Mycobacterium marinum [4]): < 40%

Compound: COc1cccc(/C=C2\SC(=S)NC2=O)c1
- IC50 [5]: > 30 µM
- inhibition at 30 µM [3]: < 40%
- inhibition (Mycobacterium marinum [4]): < 40%

Compound: COc1ccccc1/C=C1\SC(=S)N(C)C1=O
- IC50 [2]: > 30 µM

Compound: CN1C(=O)/C(=C/Cc2ccccc2)SC1=S
- IC50 [2]: > 30 µM

Compound: COc1ccc(/C=C2\SC(=S)NC2=O)cc1
- IC50 [5]: > 30 µM
- inhibition at 30 µM [3]: < 40%
- inhibition (Mycobacterium marinum [4]): < 40%

Compound: CCCCC/C=C1\SC(=S)NC1=O
- IC50 [2]: 1.3 µM

Compound: O=C1NC(=S)S/C1=C\c1ccc(Cl)cc1
- IC50 [5]: 4.7 µM
- inhibition at 30 µM [3]: < 40%
- inhibition (Mycobacterium marinum [4]): < 40%

Compound: O=C1NC(=S)S/C1=C\Cc1ccccc1
- IC50 [2]: 24.2 µM

More lines, main results first:

- IC50 [2]: 0.3 µM
Compound: NN1C(=O)/C(=C/c2ccccc2-c2ccccc2)SC1=S
- Activity [1]: < 80%

- IC50 [2]: > 30 µM
Compound: O=C1NC(=S)S/C1=C\c1ccccc1F

- IC50 [2]: 10.1 µM
Compound: CN1C(=O)/C(=C/c2ccccc2-c2ccccc2)SC1=S

- IC50 [2]: 11.8 µM
Compound: CN1C(=O)/C(=C/c2ccccc2F)SC1=S

- IC50 [2]: 20.1 µM
Compound: CN1C(=O)/C(=C/c2ccccc2O)SC1=S

- IC50 [2]: > 30 µM
Compound: Cc1cccc(/C=C2\SC(=S)N(C)C2=O)c1

- IC50 [2]: 7.3 µM
Compound: CN1C(=O)/C(=C/c2cccc(F)c2)SC1=S

- IC50 [2]: 5.1 µM
Compound: NN1C(=O)/C(=C/c2ccccc2O)SC1=S
- Activity [1]: < 80%

- IC50 [5]: 17.6 µM
- inhibition at 30 µM [3]: < 40%
- inhibition (Mycobacterium marinum [4]): < 40%
Compound: COc1ccccc1/C=C1\SC(=S)NC1=O

- IC50 [2]: 5.5 µM
Compound: CN1C(=O)/C(=C/c2ccc(-c3ccccc3)cc2)SC1=S

- inhibition at 30 µM [3]: < 40%
- inhibition (Mycobacterium marinum [4]): < 40%
Compound: O=C1NC(=S)S/C1=C\c1ccccc1O
- Activity [1]: < 80%

- IC50 [2]: 13.6 µM
Compound: COc1cccc(/C=C2\SC(=S)N(C)C2=O)c1

- IC50 [2]: 1 µM
Compound: COc1ccc(/C=C2\SC(=S)N(C)C2=O)cc1

- IC50 [2]: 10.1 µM
Compound: NN1C(=O)/C(=C/c2ccc(O)cc2)SC1=S

- IC50 [2]: 4.7 µM
Compound: CN1C(=O)/C(=C/c2ccc3ccccc3c2)SC1=S

- IC50 [2]: 20.7 µM
Compound: CN1C(=O)/C(=C/c2ccc(F)cc2)SC1=S

- inhibition at 30 µM [3]: < 40%
Compound: Cc1ccccc1/C=C1\SC(=S)NC1=O

- IC50 [2]: 9.4 µM
Compound: CN1C(=O)/C(=C/c2ccc(Cl)cc2)SC1=S

- IC50 [2]: 5.7 µM
Compound: NN1C(=O)/C(=C/c2ccc(Cl)cc2)SC1=S

- IC50 [2]: 4.4 µM
Compound: Cc1ccccc1/C=C1\SC(=S)N(C)C1=O

- IC50 [2]: 14 µM
Compound: CN1C(=O)/C(=C/c2ccc(O)cc2)SC1=S
